Data taken from patent US20080139794A1, “Accelerants for the modification of non-natural amino acids and non-natural amino acid polypeptides” (Ambrx, Inc., priority 2005, published 2008).

Legend:
[1] = tested on: hGH with para-acetylphenylalanine substituted for tyrosine at position 35 (hGH-pAcF), oxime formation with mono hydroxylamine 30 K PEG; assay: Screening of potential accelerants using 30 K PEG hGH-pAcF conjugation (SDS-PAGE); parameters: species or system human; settings: 50 mM accelerant; hGH 8 mg/ml; hGH:PEG 1:2; 28° C.; 16 hours
Procedure: Human growth hormone (hGH) with para-acetylphenylalanine substituted for tyrosine at position 35 was used to screen a panel of 20 compounds (FIG. 5). hGH was buffer exchanged into hGH reaction buffer (20 mM NaOAc, 20 mg/ml glycine, 5 mg/ml Mannitol, 1 mM EDTA, pH 4.0) using a PD 10 column, and concentrated to 10 mg/ml using a Centrocon (10 K MWCO) concentrator. hGH (10 μl) was mixed with 3.6 μl mono hydroxylamine 30 K PEG (2.5 mM), 3 μl of potential accelerant solution (200 mM in hGH reaction buffer) and buffer to give a final volume of 30 μl. The molar ratio of hGH:PEG was 1:2. The reaction mixtures were incubated at 28° C. for 16 hours and 36 hours and analyzed by SDS-PAGE (FIG. 6). The last lane in each gel was a control reaction (no accelerant). Compounds 6, 7, 8, 10, and 20 were accelerants. Two compounds from the panel, compounds 7 and 20 (acetic hydrazide) (pictured in FIG. 5), were accelerants and were further evaluated under similar reaction conditions with a higher hGH protein concentration (8 mg/ml). Lane 1 was a reaction mixture with a hGH:PEG molar ratio of 1:2 and 50 mM of accelerant compound 7. Lane 2 was a reaction mixture with a hGH:PEG molar ratio of 1:2 and 50 mM of accelerant compound 20. Lane 3 was a reaction mixture with a hGH:PEG molar ratio of 1:2 with no accelerant. Lane 4 was a reaction mixture with a hGH:PEG molar ratio of 1:5 with no accelerant.

[2] = tested on: scFv 108 259-pAcF; assay: One step dimerization of scFv-pAcF with homobifunctional 2 K hydroxylamine PEG linker (SDS-PAGE); settings: 47 mM acetic hydrazide; 147 μM homobifunctional 2 K PEG linker; pH 4.0; 28° C.; without accelerant very little dimer after 20 hours
Procedure: Single chain Fv (scFv) 108 protein with para-acetylphenylalanine substituted at position 259 (scFv 108 259-pAcF) was used the following conjugation experiment. scFv 108 259-pAcF in storage buffer was buffer exchanged into reaction buffer (150 mM NaCl, 20 mM NaOAc, 5 mM EDTA, pH 4.0) using a PD 10 column. The protein solution was concentrated to 0.5 mM, mixed with hydroxylamine homobifunctional 2 K PEG linker 2.5 mM stock solution and supplemented with acetic hydrazide as accelerant. The final reaction mixture consisted of 147 μM homobifunctional 2 K PEG linker, the corresponding concentration of pAcF-substituted scFv and 47 mM acetic hydrazide. The reaction mixtures were incubated at 28° C. and analyzed at different time points (6 hours, 20 hours, 44 hours) by SDS-PAGE (FIG. 2).
To make the one-step reaction more efficient and more practical with the homobifunctional 2 K PEG linker, accelerants were used to facilitate the dimerization process. Without accelerant, very little dimer product could be detected after 20 hours by SDS-PAGE. Lane 4 of the 6 hour, 20 hour, and 44 hour gels show reaction mixtures with a scFv:PEG linker molar ratio of 2.0:1 without the accelerant acetic hydrazide. […] Lane 1 of the 6 hour, 20 hour, and 44 hour gels show reaction mixtures with a scFv:PEG linker molar ratio of 1.6:1 with acetic hydrazide. […]

[3] = tested on: scFv 108 259-pAcF; assay: Mono hydroxylamine 30 K PEG and scFv-pAcF conjugation (SDS-PAGE); settings: 28° C.
Procedure: scFv 108 259-pAcF 0.5 mM stock solution in reaction buffer mentioned above (10 μl) is mixed with various amounts of mono hydroxylamine 30 K PEG 2.5 mM stock solution, 2.2 μl of 200 mM acetic hydrazide stock solution and reaction buffer. The reaction mixtures with a final reaction volume of 22 μl have different molar ratios of scFv:PEG (1:3 or 1:5). The accelerating effect of acetic hydrazide on conjugation of mono hydroxylamine 30 K PEG and scFv was evaluated at protein and PEG molar ratio of 1:3 and 1:5 with and without accelerant. The reaction mixtures were incubated at 28° C. and were analyzed at different time points (20 hours, 44 hours) by SDS-PAGE (FIG. 3). Lanes 1, 2, and 3 show 100%, 20%, and 10% of the starting scFv-pAcF, respectively. Lane 4 of the 20 hour and 44 hour gels show reaction mixtures with a scFv:PEG molar ratio of 1:3 with 20 mM acetic hydrazide. Lane 5 of the 20 hour and 44 hour gels show reaction mixtures with a scFv:PEG molar ratio of 1:3 without accelerant. Lane 6 of the 20 hour and 44 hour gels show reaction mixtures with a scFv:PEG molar ratio of 1:5 with 20 mM acetic hydrazide. […]
Similarly, the relative conjugation efficiency of different concentrations of the accelerant acetic hydrazide (5 mM, 20 mM, 80 mM) with a scFv:30 K PEG mono hydroxylamine molar ratio of 1:2 were evaluated (FIG. 4). […]

[4] = target: wild type hGH (Homo sapiens, UniProt P01241); assay: LCMS analysis of hGH after incubation with accelerant; settings: wild type hGH 5.8 mg/ml; up to 200 mM accelerant; 28° C.; 48 hour
Chain of wild type hGH (P01241 with tags, fused parts or gaps): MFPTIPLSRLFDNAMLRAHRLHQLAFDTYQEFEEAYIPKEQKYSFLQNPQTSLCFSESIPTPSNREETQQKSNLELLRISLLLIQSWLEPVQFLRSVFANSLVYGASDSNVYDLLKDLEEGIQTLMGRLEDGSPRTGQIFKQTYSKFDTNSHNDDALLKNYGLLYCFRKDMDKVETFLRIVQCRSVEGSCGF
Procedure: In hGH reaction buffer, wild type hGH (5.8 mg/ml) was incubated with various concentrations of the accelerant acetic hydrazide (200 mM, 100 mM, 50 mM, 25 mM, 12.5 mM, 6.25 mM and 0 mM) at 28° C. for 48 hours. The accelerant was removed through dialysis (10 k MWCO). The resulting protein solutions were analyzed by LCMS (FIG. 8).]
The measured molecular weights of hGH in all the conditions are same and match theoretical value 22256.

SMILES: CC(=O)NN [Compound 20, acetic hydrazide]
- acceleration of hGH-pAcF / 30 K PEG conjugation at higher protein concentration [1]: shown to catalyze the reaction
- dimer product formation [2]: the dimer product appeared after 6 hours
- relative conjugation efficiency at different accelerant concentrations ([3]; 5 mM, 20 mM, 80 mM acetic hydrazide, scFv:PEG 1:2): the higher concentration of accelerant, the faster the conjugation
- accelerating effect on conjugation of mono hydroxylamine 30 K PEG and scFv ([3]; 20 mM acetic hydrazide, scFv:PEG 1:3 and 1:5, with and without accelerant, 20 hours, 44 hours): accelerates the conjugation reaction
- covalent modification of protein by accelerant (LCMS) [4]: no covalent modification could be detected
